According to the NIST ThermoML archive (doi:10.1021/acs.jced.7b00503):

Assay: wn = mass fraction of the nth substance listed
Conditions: Pendant drop shape

[Br-].[K+] [potassium bromide] + O
surface tension liquid-gas [mN/m]
Conditions | w1 = 0.05 | w1 = 0.1 | w1 = 0.15 | w1 = 0.2 | w1 = 0.25 | w1 = 0.3 | w1 = 0.35 | w1 = 0.4
293.15 K | 73.93 | 74.51 | 74.9 | 75.3 | 76.16 | 77.43 | 78.85 | 80.3
303.15 K | 72.42 | 73.05 | 73.27 | 73.82 | 74.82 | 76.15 | 77.51 | 78.92
313.15 K | 70.85 | 71.44 | 71.74 | 72.29 | 73.39 | 74.72 | 76.17 | 77.58
323.15 K | 69.14 | 69.86 | 70.21 | 70.82 | 71.86 | 73.23 | 74.64 | 76.06
333.15 K | 67.31 | 67.95 | 68.49 | 69.25 | 70.24 | 71.64 | 73.11 | 74.53
343.15 K | 65.4 | 66.14 | 66.77 | 67.46 | 68.61 | 69.93 | 71.39 | 72.87
353.15 K | 63.44 | 64.11 | 64.86 | 65.73 | 66.79 | 68.15 | 69.57 | 71.22

[Cl-].[K+] [potassium chloride] + O
surface tension liquid-gas [mN/m]
Conditions | w1 = 0.025 | w1 = 0.05 | w1 = 0.075 | w1 = 0.1 | w1 = 0.125 | w1 = 0.15 | w1 = 0.175 | w1 = 0.2
293.15 K | 73.32 | 73.89 | 74.52 | 75.13 | 75.61 | 76.15 | 77.1 | 77.99
303.15 K | 71.83 | 72.44 | 73.09 | 73.68 | 74.44 | 75.18 | 75.74 | 76.32
313.15 K | 70.27 | 71.05 | 71.66 | 72.24 | 72.88 | 73.56 | 74.18 | 74.82
323.15 K | 68.58 | 69.17 | 69.84 | 70.49 | 71.12 | 71.74 | 72.36 | 73
333.15 K | 66.95 | 67.7 | 68.21 | 68.76 | 69.37 | 69.83 | 70.47 | 71.1
343.15 K | 65 | 65.55 | 66.46 | 67.35 | 67.94 | 68.47 | 69.17 | 69.81
353.15 K | 63.25 | 63.91 | 64.64 | 65.37 | 66.05 | 66.73 | 67.35 | 68.12

[I-].[K+] [potassium iodide] + O
surface tension liquid-gas [mN/m]
Conditions | 293.15 K | 298.15 K | 303.15 K | 313.15 K | 323.15 K | 333.15 K
w1 = 0.01 | 73.24 | 72.53 | 71.81 | 70.45 | 68.95 | 67.52
w1 = 0.02 | 73.65 | 73 | 72.35 | 71.05 | 69.69 | 68.36
w1 = 0.03 | 74.15 | 73.57 | 72.85 | 71.62 | 70.32 | 68.95
w1 = 0.04 | 75.05 | 74.45 | 73.7 | 72.4 | 71.2 | 69.75
w1 = 0.05 | 75.44 | 74.79 | 74 | 72.7 | 71.47 | 69.98
w1 = 0.06 | 76.12 | 75.4 | 74.75 | 73.39 | 72.15 | 70.53
w1 = 0.07 | 76.76 | 76.04 | 75.39 | 74.09 | 72.6 | 70.97
w1 = 0.08 | 77.23 | 77.03 | 76.15 | 74.96 | 73.86 | 72.7
w1 = 0.09 | 78.32 | 77.68 | 77.09 | 75.86 | 74.62 | 73.19
w1 = 0.1 | 79.11 | 78.6 | 78 | 76.83 | 75.66 | 74.36
w1 = 0.11 | 80.21 | 79.5 | 78.84 | 77.67 | 76.43 | 75.26
w1 = 0.12 | 81.04 | 80.2 | 79.51 | 78.4 | 77.16 | 75.86

[Br-].[Na+] [sodium bromide] + O
surface tension liquid-gas [mN/m]
Conditions | w1 = 0.05 | w1 = 0.1 | w1 = 0.15 | w1 = 0.2 | w1 = 0.25 | w1 = 0.3 | w1 = 0.35 | w1 = 0.4
293.15 K | 74.11 | 75.5 | 76.51 | 77.4 | 78.93 | 80.32 | 82 | 83.5
303.15 K | 72.43 | 73.5 | 74.83 | 75.4 | 77.25 | 78.62 | 80.31 | 81.93
313.15 K | 70.75 | 72 | 73.14 | 74.1 | 75.68 | 77.05 | 78.73 | 80.36
323.15 K | 69.07 | 70 | 71.36 | 72.6 | 74 | 75.26 | 77.05 | 78.56
333.15 K | 67.28 | 68.4 | 69.67 | 70.8 | 72.31 | 73.6 | 75.37 | 76.87
343.15 K | 65.49 | 66.4 | 67.85 | 69.5 | 70.52 | 71.87 | 73.9 | 75.73
353.15 K | 63.71 | 64.73 | 65.99 | 67.34 | 68.6 | 70.06 | 71.81 | 73.32

[Cl-].[Na+] [sodium chloride] + O
surface tension liquid-gas [mN/m]
Conditions | w1 = 0.025 | w1 = 0.05 | w1 = 0.075 | w1 = 0.1 | w1 = 0.125 | w1 = 0.15 | w1 = 0.175 | w1 = 0.2 | w1 = 0.225 | w1 = 0.25
293.15 K | 73.42 | 74.09 | 74.85 | 75.6 | 76.54 | 77.52 | 78.7 | 79.82 | 81.03 | 81.95
298.15 K | 72.63 | 73.32 | 74.15 | 74.9 | 75.8 | 76.7 | 77.82 | 78.85 | 80.32 | 81.41
303.15 K | 71.83 | 72.56 | 73.35 | 74.17 | 75.09 | 76.11 | 77.2 | 78.26 | 79.77 | 80.8
313.15 K | 70.33 | 71.12 | 71.95 | 72.81 | 73.86 | 74.9 | 75.98 | 76.99 | 78.54 | 79.7
323.15 K | 68.93 | 69.91 | 70.62 | 71.32 | 72.46 | 73.55 | 74.68 | 75.71 | 77.32 | 78.45
333.15 K | 67.21 | 68.24 | 69.21 | 70.14 | 71.18 | 72.22 | 73.43 | 74.52 | 76.01 | 77.14

[I-].[Na+] [sodium iodide] + O
surface tension liquid-gas [mN/m]
Conditions | 293.15 K | 298.15 K | 303.15 K | 313.15 K | 323.15 K | 333.15 K
w1 = 0.05 | 73.15 | 72.4 | 71.66 | 70.23 | 68.78 | 67.4
w1 = 0.1 | 73.6 | 73 | 72.22 | 70.81 | 69.34 | 67.93
w1 = 0.15 | 74.17 | 73.48 | 72.79 | 71.36 | 69.81 | 68.42
w1 = 0.2 | 74.7 | 73.96 | 73.34 | 71.85 | 70.35 | 68.86
w1 = 0.25 | 75.15 | 74.4 | 73.8 | 72.45 | 70.95 | 69.43
w1 = 0.3 | 75.5 | 74.9 | 74.26 | 72.92 | 71.56 | 69.96
w1 = 0.35 | 76.29 | 75.71 | 75.08 | 73.76 | 72.5 | 71.19
w1 = 0.4 | 77.1 | 76.5 | 75.85 | 74.6 | 73.35 | 72.24
w1 = 0.45 | 78.25 | 77.63 | 77.03 | 75.96 | 74.77 | 73.77
w1 = 0.5 | 79.35 | 78.85 | 78.34 | 77.3 | 76.17 | 75.04
w1 = 0.55 | 80.66 | 80.14 | 79.68 | 78.66 | 77.68 | 77.15

O [water] + [Br-].[K+]
w2 = 0
Conditions | surface tension liquid-gas [mN/m]
293.15 K | 72.75
303.15 K | 71.15
313.15 K | 69.55
323.15 K | 67.9
333.15 K | 66.17
343.15 K | 64.39
353.15 K | 62.61

O [water] + [Br-].[Na+]
w2 = 0
Conditions | surface tension liquid-gas [mN/m]
293.15 K | 72.75
303.15 K | 71.15
313.15 K | 69.55
323.15 K | 67.9
333.15 K | 66.17
343.15 K | 64.39
353.15 K | 62.61

O [water] + [Cl-].[K+]
w2 = 0
Conditions | surface tension liquid-gas [mN/m]
293.15 K | 72.75
303.15 K | 71.15
313.15 K | 69.55
323.15 K | 67.9
333.15 K | 66.17
343.15 K | 64.39
353.15 K | 62.61

O [water] + [Cl-].[Na+]
w2 = 0
Conditions | surface tension liquid-gas [mN/m]
293.15 K | 72.75
298.15 K | 71.97
303.15 K | 71.15
313.15 K | 69.55
323.15 K | 67.9
333.15 K | 66.17

O [water] + [I-].[K+]
w2 = 0
Conditions | surface tension liquid-gas [mN/m]
293.15 K | 72.75
298.15 K | 71.97
303.15 K | 71.15
313.15 K | 69.55
323.15 K | 67.9
333.15 K | 66.17

O [water] + [I-].[Na+]
w2 = 0
Conditions | surface tension liquid-gas [mN/m]
293.15 K | 72.75
298.15 K | 71.97
303.15 K | 71.15
313.15 K | 69.55
323.15 K | 67.9
333.15 K | 66.17
